Tested on: C57BL/KsJ db/db mice
Assay: Hypoglycemic effect of single or combined administration in db/db mice (plasma glucose concentration)
Type: in vivo, mouse
Conditions: for Decreasing effect for the plasma glucose concentration (in words) / Relative index (mean plasma glucose of group / mean of control group) / Decreasing rate (of plasma glucose concentration vs control group): 14th day; for Decreasing effect for the plasma glucose concentration (in words): compared with db/+m normal mouse (187±16); for Relative index (mean plasma glucose of group / mean of control group) / Decreasing rate (of plasma glucose concentration vs control group) / Plasma glucose concentration: oral once a day for 14 days; for Decreasing rate (of plasma glucose concentration vs control group): (control mean − group mean)/control mean ×100; for Plasma glucose concentration: plasma 2 hours after administration on the 14th day, mean±standard deviation for 6 mice, control group 499 ± 81
Experimental: As test animals, C57BL/KsJ db/db mice were used, which were created in Jackson Laboratory (USA) and known as an obesity, hyperlipemia, hyperinsulinemia, and insulin-resistant model (Journal of Clinical Investigation, 85, pp 962-967, 1990). Blood was collected from the orbital venous plexus of each 7-week-old db/db mouse using a heparin-treated capillary tube, and centrifugation was performed to collect plasma. Thereafter, the plasma glucose concentration (Glucose CII-Test Wako (Wako Pure Chemical Industries, Ltd.)), the insulin concentration (Lebis Insulin Kit: for mouse-T (SHIBAYAGI)), and the triglyceride concentration (Triglyceride E-Test Wako (Wako Pure Chemical Industries, Ltd.)) were measured for classification. The classification was performed so that distribution of each measurement item is uniform for each group by block allocation based on many variables in which the plasma glucose concentration is most emphasized using the measured values of the plasma glucose concentration, the body weight, the insulin concentration, and the triglyceride concentration. […] Two hours after the administration of the medicines on the 14th day from the beginning day of the administration, blood was collected from the orbital venous plexus, and the plasma thereof was collected to measure the plasma glucose concentration. […] Each plasma glucose concentration is expressed as mean±standard deviation for 6 mice of each group. Each decreasing rate is calculated from ((mean of plasma glucose concentration of control group)−(mean of plasma glucose concentration of each group))/(mean of plasma glucose concentration of control group)×100, while each relative index is calculated from (mean of plasma glucose concentration of each group)/(mean of plasma glucose concentration of control group)

| SMILES | Decreasing effect for the plasma glucose concentration (in words) | Relative index (mean plasma glucose of group / mean of control group) | Decreasing rate (of plasma glucose concentration vs control group) | Plasma glucose concentration |
| --- | --- | --- | --- | --- |
| CCc1ccc(CCOc2ccc(CC3SC(=O)NC3=O)cc2)nc1.Cl (centres unmarked) [Pioglitazone hydrochloride, 5-[4-[2-(5-Ethyl-2-pyridyl)ethoxy]benzyl]thiazolidine-2,4-dione hydrochloride] | insufficient | 0.80 | 20% | 401 ± 173 mg/dL |
| O=C([O-])C(Cl)(Cl)CCCCCCCCCCc1ccc(Cl)cc1.[Na+] [sodium 2,2-dichloro-12-(4-chlorophenyl)-dodecanoate] | insufficient | 0.92 | 8% | 459 ± 77 mg/dL |

Reference: patent publication US20060025478A1, “Medicine for prevention or treatment of diabetes” (priority 2004, published 2006)
